{"source": "patent US20240174662A1", "about": "“SMALL MOLECULE INHIBITORS OF SALT INDUCIBLE KINASES” (Janssen Biotech, Inc., priority 2021, published 2024)", "data": [{"biological_target": "SIK2 (Homo sapiens (Human), UniProt Q9H0K1)", "sequence (Q9H0K1 whole entry, species assumed)": "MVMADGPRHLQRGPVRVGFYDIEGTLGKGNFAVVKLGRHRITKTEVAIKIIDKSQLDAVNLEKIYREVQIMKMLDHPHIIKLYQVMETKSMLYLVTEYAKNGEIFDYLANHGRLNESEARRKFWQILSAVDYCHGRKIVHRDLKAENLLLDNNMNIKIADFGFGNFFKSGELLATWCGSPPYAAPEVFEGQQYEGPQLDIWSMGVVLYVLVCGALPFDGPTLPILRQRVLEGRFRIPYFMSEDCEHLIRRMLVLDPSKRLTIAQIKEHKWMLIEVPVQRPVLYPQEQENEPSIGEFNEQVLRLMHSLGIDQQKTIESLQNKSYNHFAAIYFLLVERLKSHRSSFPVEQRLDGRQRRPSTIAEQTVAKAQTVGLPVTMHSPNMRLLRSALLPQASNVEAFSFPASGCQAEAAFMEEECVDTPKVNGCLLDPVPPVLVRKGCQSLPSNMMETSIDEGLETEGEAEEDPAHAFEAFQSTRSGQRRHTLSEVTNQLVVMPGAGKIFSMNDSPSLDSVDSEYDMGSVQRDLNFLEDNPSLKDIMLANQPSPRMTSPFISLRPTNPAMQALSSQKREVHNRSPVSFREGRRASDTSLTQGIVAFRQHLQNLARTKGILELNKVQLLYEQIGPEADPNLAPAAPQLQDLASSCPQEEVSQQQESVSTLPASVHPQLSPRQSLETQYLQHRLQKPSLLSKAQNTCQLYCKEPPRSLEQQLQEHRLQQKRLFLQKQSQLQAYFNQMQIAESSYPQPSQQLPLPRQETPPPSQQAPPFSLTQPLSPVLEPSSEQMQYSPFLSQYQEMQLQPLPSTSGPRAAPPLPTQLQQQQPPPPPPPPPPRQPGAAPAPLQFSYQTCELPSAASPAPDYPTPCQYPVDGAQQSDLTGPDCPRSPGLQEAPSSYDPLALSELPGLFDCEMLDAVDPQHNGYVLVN", "assay": "SIK2 Enzymatic Assay Version 2 (High ATP)", "type": "biochemical", "conditions": "3 mM ATP and 200 μM HDAC5tide final, ADP-Glo Max luminescence", "method_in_brief": "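Luminescent ADP-Glo Max read-out: depletion reagent 2 h, then detection reagent 1 h. Before the reaction, compounds were incubated 30 min with enzyme added at 6 nM (twice final concentration), with all steps at room temperature.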", "units": {"IC50": "nM"}, "values": [{"smiles": "CCn1ncc(OC[C@@H]2CCNC2)c1-c1ccn2nc(NC(=O)C3CC3)cc2c1", "note": "[Example 312, N-[5-[2-ethyl-4-[[(3R)-pyrrolidin-3-yl]methoxy]pyrazol-3-yl]pyrazolo[1,5-a]pyridin-2-yl]cyclopropanecarboxamide]", "IC50": 44.3}, {"smiles": "Cn1ncc(O[C@H]2C[C@H]3COC[C@@H](C2)N3)c1-c1ccn2nc(NC(=O)C3CC3)cc2c1", "note": "[Example 313, N-[5-[2-methyl-4-[[(1R,5S)-3-oxa-9-azabicyclo[3.3.1]nonan-7-yl]oxy]pyrazol-3-yl]pyrazolo[1,5-a]pyridin-2-yl]cyclopropanecarboxamide]", "IC50": 29.6}, {"smiles": "CN1CC(C)(COc2cnn(C)c2-c2ccn3nc(NC(=O)C4CC4)cc3c2)C1", "note": "[Example 314, N-[5-[4-[(1,3-dimethylazetidin-3-yl)methoxy]-2-methyl-pyrazol-3-yl]pyrazolo[1,5-a]pyridin-2-yl]cyclopropanecarboxamide]", "IC50": 30.4}, {"smiles": "Cn1ncc(OC[C@H]2CCN2CC(F)(F)F)c1-c1ccn2nc(NC(=O)C3CC3)cc2c1", "note": "[Example 315, N-[5-[2-methyl-4-[[(2R)-1-(2,2,2-trifluoroethyl)azetidin-2-yl]methoxy]pyrazol-3-yl]pyrazolo[1,5-a]pyridin-2-yl]cyclopropanecarboxamide]", "IC50": 14.1}, {"smiles": "Cc1onc(OC2CCNCC2)c1-c1ccn2nc(NC(=O)C3CC3)cc2c1", "note": "[Example 316, N-[5-[5-methyl-3-(4-piperidyloxy)isoxazol-4-yl]pyrazolo[1,5-a]pyridin-2-yl]cyclopropanecarboxamide]", "IC50": 50.3}, {"smiles": "COC1(COc2noc(C)c2-c2ccn3nc(Nc4cnccn4)cc3c2)CNC1", "note": "[Example 318, 5-[3-[(3-methoxyazetidin-3-yl)methoxy]-5-methyl-isoxazol-4-yl]-N-pyrazin-2-yl-pyrazolo[1,5-a]pyridin-2-amine]", "IC50": 13.5}, {"smiles": "Cc1onc(OC[C@H]2C[C@@H](N)C2)c1-c1ccn2nc(NC(=O)C3CC3)cc2c1", "note": "[Example 319, N-[5-[3-[(3-aminocyclobutyl)methoxy]-5-methyl-isoxazol-4-yl]pyrazolo[1,5-a]pyridin-2-yl]cyclopropanecarboxamide]", "IC50": 51.8}, {"smiles": "Cc1cc(Nc2cc3cc(-c4c(OC[C@H]5CCN5)noc4C)ccn3n2)nc(C)n1", "note": "[Example 320, 5-[3-[[(2R)-azetidin-2-yl]methoxy]-5-methyl-isoxazol-4-yl]-N-(2,6-dimethylpyrimidin-4-yl)pyrazolo[1,5-a]pyridin-2-amine]", "IC50": 50.8}, {"smiles": "Cc1onc(OC[C@H]2N(C)CC2(C)C)c1-c1ccn2nc(NC(=O)C3CC3)cc2c1", "note": "[Example 321, N-[5-[5-methyl-3-[[(2S)-1,3,3-trimethylazetidin-2-yl]methoxy]isoxazol-4-yl]pyrazolo[1,5-a]pyridin-2-yl]cyclopropanecarboxamide]", "IC50": 52.6}, {"smiles": "Cc1cnc(Nc2cc3cc(-c4c(O[C@@H]5CN[C@H](C)C5)noc4C)ccn3n2)cn1", "note": "[Example 322, 5-[5-methyl-3-[(3S,5R)-5-methylpyrrolidin-3-yl]oxy-isoxazol-4-yl]-N-(5-methylpyrazin-2-yl)pyrazolo[1,5-a]pyridin-2-amine]", "IC50": 46.3}, {"smiles": "Cc1cnc(Nc2cc3cc(-c4c(OC[C@H]5CCN5C)noc4C)ccn3n2)cn1", "note": "[Example 323, 5-[5-methyl-3-[[(2R)-1-methylazetidin-2-yl]methoxy]isoxazol-4-yl]-N-(5-methylpyrazin-2-yl)pyrazolo[1,5-a]pyridin-2-amine]", "IC50": 25.6}, {"smiles": "Cc1onc(OC[C@H](c2ccccc2F)N(C)C)c1-c1ccn2nc(NC(=O)C3CC3)cc2c1", "note": "[Example 324, N-[5-[3-[(2S)-2-(dimethylamino)-2-(2-fluorophenyl)ethoxy]-5-methyl-isoxazol-4-yl]pyrazolo[1,5-a]pyridin-2-yl]cyclopropanecarboxamide]", "IC50": 23.8}, {"smiles": "Cc1onc(OC[C@H](c2ccccn2)N(C)C)c1-c1ccn2nc(NC(=O)C3CC3)cc2c1", "note": "[Example 325, N-[5-[3-[(2S)-2-(dimethylamino)-2-(2-pyridyl)ethoxy]-5-methyl-isoxazol-4-yl]pyrazolo[1,5-a]pyridin-2-yl]cyclopropanecarboxamide]", "IC50": 63.2}, {"smiles": "Cc1onc(OC[C@](C)(N)c2ccccc2)c1-c1ccn2nc(NC(=O)C3CC3)cc2c1", "note": "[Example 326, N-[5-[3-[(2R)-2-amino-2-phenyl-propoxy]-5-methyl-isoxazol-4-yl]pyrazolo[1,5-a]pyridin-2-yl]cyclopropanecarboxamide]", "IC50": 60}, {"smiles": "Cc1cc(Nc2cc3cc(-c4c(O[C@@H]5CN[C@H](C(F)F)C5)noc4C)ccn3n2)nc(C)n1", "note": "[Example 327, 5-[3-[(3S,5S)-5-(difluoromethyl)pyrrolidin-3-yl]oxy-5-methyl-isoxazol-4-yl]-N-(2,6-dimethylpyrimidin-4-yl)pyrazolo[1,5-a]pyridin-2-amine]", "IC50": 42.8}, {"smiles": "Cc1onc(OC[C@@H](N)C2CC2)c1-c1ccn2nc(NC(=O)C3CC3)cc2c1", "note": "[Example 328, N-[5-[3-[(2S)-2-amino-2-cyclopropyl-ethoxy]-5-methyl-isoxazol-4-yl]pyrazolo[1,5-a]pyridin-2-yl]cyclopropanecarboxamide]", "IC50": 61.8}, {"smiles": "Cc1onc(OC[C@H]2CCN2C)c1-c1ccc2nc(NC(=O)C3CC3)cn2c1", "note": "[Example 329, N-[6-[5-methyl-3-[[(2R)-1-methylazetidin-2-yl]methoxy]isoxazol-4-yl]imidazo[1,2-a]pyridin-2-yl]cyclopropanecarboxamide]", "IC50": 35}, {"smiles": "Cc1snc(O[C@H]2CCNC2)c1-c1ccn2nc(NC(=O)C3CC3)cc2c1", "note": "[Example 330, N-[5-[5-methyl-3-[(3S)-pyrrolidin-3-yl]oxy-isothiazol-4-yl]pyrazolo[1,5-a]pyridin-2-yl]cyclopropanecarboxamide]", "IC50": 35.2}, {"smiles": "Cc1snc(OC[C@H]2CNCCO2)c1-c1ccn2nc(NC(=O)C3CC3)cc2c1", "note": "[Example 331, N-[5-[5-methyl-3-[[(2R)-morpholin-2-yl]methoxy]isothiazol-4-yl]pyrazolo[1,5-a]pyridin-2-yl]cyclopropanecarboxamide]", "IC50": 32.4}, {"smiles": "Cc1snc(OC[C@H]2CN(C)CCO2)c1-c1ccn2nc(NC(=O)C3CC3)cc2c1", "note": "[Example 332, N-[5-[5-methyl-3-[[(2R)-4-methylmorpholin-2-yl]methoxy]isothiazol-4-yl]pyrazolo[1,5-a]pyridin-2-yl]cyclopropanecarboxamide]", "IC50": 58.3}, {"smiles": "CN1CCO[C@@H](COc2cnn(C)c2-c2ccn3nc(NC(=O)C4CC4)cc3c2)C1", "note": "[Example 333, N-[5-[2-methyl-4-[[(2R)-4-methylmorpholin-2-yl]methoxy]pyrazol-3-yl]pyrazolo[1,5-a]pyridin-2-yl]cyclopropanecarboxamide]", "IC50": 54}, {"smiles": "Cn1ncc(OC[C@H]2C[C@H](N)C2)c1-c1ccn2nc(NC(=O)C3CC3)cc2c1", "note": "[Example 334, N-[5-[4-[(3-aminocyclobutyl)methoxy]-2-methyl-pyrazol-3-yl]pyrazolo[1,5-a]pyridin-2-yl]cyclopropanecarboxamide]", "IC50": 55.1}, {"smiles": "Cn1ncc(O[C@@H]2CCNC2)c1-c1ccn2nc(NC(=O)C3CC3)cc2c1", "note": "[Example 335, N-[5-[2-methyl-4-[(3R)-pyrrolidin-3-yl]oxy-pyrazol-3-yl]pyrazolo[1,5-a]pyridin-2-yl]cyclopropanecarboxamide]", "IC50": 68.7}, {"smiles": "C[C@@H]1C[C@H](Oc2cnn(C)c2-c2ccn3nc(NC(=O)C4CC4)cc3c2)CN1C", "note": "[Example 336, N-[5-[4-[(3S,5R)-1,5-dimethylpyrrolidin-3-yl]oxy-2-methyl-pyrazol-3-yl]pyrazolo[1,5-a]pyridin-2-yl]cyclopropanecarboxamide]", "IC50": 66.4}]}]}
